Experimental data taken from the supplement of paper PMC10307832.

Assays:
Assay in all cases: relative viability (nuclei count vs DMSO), 5 days (fraction); higher = more cells survive
[1] = compound: C(C(=O)C(=O)O)Br [Bromopyruvate] + Nc1ncn([C@H]2C[C@H](O)[C@@H](CO)O2)c(=O)n1 [Decitabine] (partner 2 µM)
Procedure, shortened: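 Nuclei were stained with Hoechst during a one-step fixation (final 0.05% Triton X-100, 1% formaldehyde, 1 ug/ml Hoechst) carried out 5 days after dosing, then counted on 4× images. The cells, lung cancer lines in 1536-well plates, had been dosed by pin tool the day after seeding with one drug alone or a fixed anchor-drug dose plus five library-drug doses (not always all listed) in √10 steps. Relative viability is the nuclei count in treated wells divided by that in vehicle wells, and each value is the median of duplicate plates.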

Bicalutamide = compound: CC(O)(CS(=O)(=O)c1ccc(F)cc1)C(=O)Nc1ccc(C#N)c(C(F)(F)F)c1 [Bicalutamide]
Procedure, shortened: (§1)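 Viability here means nuclei in treated wells divided by nuclei in vehicle wells, reported as the median across plates. Only plates with control CV below 25% and at least one doubling passed. Lung cancer cell lines in 1536-well plates were exposed to five √10-spaced library-drug doses for 5 days and counted from 4× Hoechst images in MetaXpress.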

Bromopyruvate = compound: C(C(=O)C(=O)O)Br [Bromopyruvate]
Procedure, shortened: as §1

Work on UMC-11 yielded a relative viability ([1]; first compound 1 µM) of 0.596, a relative viability ([1]; first compound 3.162 µM) of 0.574 and a relative viability ([1]; first compound 10 µM) of 0.815. The relative viability ([1]; first compound 31.62 µM) was 0.617, the relative viability ([1]; first compound 100 µM) was 0.708 and the relative viability (Bicalutamide; 0.08 µM) was 0.958. It also gave a relative viability (Bicalutamide; 0.253 µM) of 0.909, a relative viability (Bicalutamide; 0.8 µM) of 1.17 and a relative viability (Bicalutamide; 2.53 µM) of 0.938. For the same cell line, the relative viability (Bromopyruvate; 1 µM) was 1.03, the relative viability (Bromopyruvate; 3.162 µM) was 0.989 and the relative viability (Bromopyruvate; 10 µM) was 0.908. The relative viability (Bromopyruvate; 31.62 µM) was 0.958 and the relative viability (Bromopyruvate; 100 µM) was 1.
